From PubChem BioAssay AID1963445 (Molecular Pharmacology Branch, DTP, NCI, 2024)
Several values for one entry are separate records, joined by “and”; a condition that tells them apart may be missing. Identical values can stand only once.

System: MCF7 complex spheroid growth, % test/control
Assay: Anticancer human tumor MCF7 cell line growth inhibition [Asc];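 note: spheroids exposed to compounds for 7 days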;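 for viability, T/C: 100% = DMSO vehicle control wells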
Conditions: for viability, T/C: stronger effect = lower value; active = viability on the fitted dose curve at most 10% of control; inactive = the rest
How it was run: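 Spheroid model: tumor line + HUVEC + hMSC. Single agents and combinations; top conc. at/near clinical Cmax (10 microM if undetermined), half-log dilutions. DMSO stocks at 800-fold test concentration.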

[1] = curve of first compound, second compound 0.00316 µM
[2] = curve of first compound, second compound 0.01 µM
[3] = curve of first compound, second compound 0.0316 µM
[4] = curve of first compound, second compound 0.1 µM
[5] = curve of first compound, second compound 0.316 µM
[6] = curve of first compound, second compound 1 µM
[7] = second compound 0.00316 µM, first compound 0.0316 µM
[8] = second compound 0.00316 µM, first compound 0.1 µM
[9] = second compound 0.00316 µM, first compound 0.316 µM
[10] = second compound 0.00316 µM, first compound 1 µM
[11] = second compound 0.01 µM, first compound 0.0316 µM
[12] = second compound 0.01 µM, first compound 0.1 µM
[13] = second compound 0.01 µM, first compound 0.316 µM
[14] = second compound 0.01 µM, first compound 1 µM
[15] = second compound 0.0316 µM, first compound 0.0316 µM
[16] = second compound 0.0316 µM, first compound 0.1 µM
[17] = second compound 0.0316 µM, first compound 0.316 µM
[18] = second compound 0.0316 µM, first compound 1 µM
[19] = second compound 0.1 µM, first compound 0.0316 µM
[20] = second compound 0.1 µM, first compound 0.1 µM
[21] = second compound 0.1 µM, first compound 0.316 µM
[22] = second compound 0.1 µM, first compound 1 µM
[23] = second compound 0.316 µM, first compound 0.0316 µM
[24] = second compound 0.316 µM, first compound 0.1 µM
[25] = second compound 0.316 µM, first compound 0.316 µM
[26] = second compound 0.316 µM, first compound 1 µM
[27] = second compound 1 µM, first compound 0.0316 µM
[28] = second compound 1 µM, first compound 0.1 µM
[29] = second compound 1 µM, first compound 0.316 µM
[30] = second compound 1 µM, first compound 1 µM

O=C(c1cc(Cc2n[nH]c(=O)c3ccccc23)ccc1F)N1CCN(C(=O)C2CC2)CC1 + CNC(C)C(=O)NC1CN(S(=O)(=O)c2cccc(S(=O)(=O)N3CCC4CCC(C(=O)NC(c5ccccc5)c5ccccc5)N4C(=O)C(NC(=O)C(C)NC)C3)c2)CCC2CCC(C(=O)NC(c3ccccc3)c3ccccc3)N2C1=O
inactive: viability, T/C [7] 10.6% | viability, T/C [8] 15.2% | viability, T/C [9] 8.86% | viability, T/C [10] 10.7% | viability, T/C (second compound 0.00316 µM, first compound 3.16 µM) 10.2% | viability, T/C (second compound 0.00316 µM, first compound 10 µM) 11.4% | viability, T/C [11] 16.2% | viability, T/C [12] 14.4% | viability, T/C [13] 14.5% | viability, T/C [14] 15.3% | viability, T/C (second compound 0.01 µM, first compound 3.16 µM) 16.9% | viability, T/C (second compound 0.01 µM, first compound 10 µM) 14% | viability, T/C [15] 13.8% | viability, T/C [16] 12% | viability, T/C [17] 11.5% | viability, T/C [18] 13.1% | viability, T/C (second compound 0.0316 µM, first compound 3.16 µM) 11.4% | viability, T/C (second compound 0.0316 µM, first compound 10 µM) 12.3% | viability, T/C [19] 13% | viability, T/C [20] 13.8% | viability, T/C [21] 11.8% | viability, T/C [22] 13.8% | viability, T/C (second compound 0.1 µM, first compound 3.16 µM) 12.1% | viability, T/C (second compound 0.1 µM, first compound 10 µM) 11.4% | viability, T/C [23] 14.7% | viability, T/C [24] 12.3% | viability, T/C [25] 11.8% | viability, T/C [26] 12.3% | viability, T/C (second compound 0.316 µM, first compound 3.16 µM) 11.3% | viability, T/C (second compound 0.316 µM, first compound 10 µM) 13.5% | viability, T/C [27] 11.1% | viability, T/C [28] 10.9% | viability, T/C [29] 13.7% | viability, T/C [30] 10.9% | viability, T/C (second compound 1 µM, first compound 3.16 µM) 11.9% | viability, T/C (second compound 1 µM, first compound 10 µM) 14.3%
< 31.6 nM: IC50 [1] | IC50 [2] | IC50 [3] | IC50 [4] | IC50 [5] | IC50 [6]

Cc1c(S(C)(=O)=O)c(-c2cc(F)cc(N3CCN(c4ccc(NS(=O)(=O)c5ccc(NC(CCN6CCC(C(=O)OCCCP(=O)(O)O)CC6)CSc6ccccc6)c(S(=O)(=O)C(F)(F)F)c5)cc4)CC3)c2)c(-c2ccc(Cl)cc2)n1C(C)C (stereo unspecified)
> 10000 nM: IC50 (compound alone, run of 11/07/2022)
inactive: viability, T/C (compound 0.0316 µM) 90.5% [middle of 7 runs] | viability, T/C (compound 10 µM) 166% [middle of 7 runs]

CCN1CCN(Cc2ccc(Nc3ncc(F)c(-c4cc(F)c5nc(C)n(C(C)C)c5c4)n3)nc2)CC1 + CNC(C)C(=O)NC1CN(S(=O)(=O)c2cccc(S(=O)(=O)N3CCC4CCC(C(=O)NC(c5ccccc5)c5ccccc5)N4C(=O)C(NC(=O)C(C)NC)C3)c2)CCC2CCC(C(=O)NC(c3ccccc3)c3ccccc3)N2C1=O
inactive: viability, T/C (second compound 0.00316 µM, first compound 0.00316 µM) 30.3% | viability, T/C (second compound 0.00316 µM, first compound 0.01 µM) 32.9% | viability, T/C [7] 12.9% | viability, T/C [8] 20.2% | viability, T/C [9] 12.3% | viability, T/C [10] 14.1% | viability, T/C (second compound 0.01 µM, first compound 0.00316 µM) 17.1% | viability, T/C (second compound 0.01 µM, first compound 0.01 µM) 10.8% | viability, T/C [11] 10.1% | viability, T/C [12] 10.1% | viability, T/C [13] 10.5% | viability, T/C [14] 11.8% | viability, T/C (second compound 0.0316 µM, first compound 0.00316 µM) 14.4% | viability, T/C (second compound 0.0316 µM, first compound 0.01 µM) 9.49% | viability, T/C [15] 9.67% | viability, T/C [16] 11.8% | viability, T/C [17] 11.1% | viability, T/C [18] 10.6% | viability, T/C (second compound 0.1 µM, first compound 0.00316 µM) 12.2% | viability, T/C (second compound 0.1 µM, first compound 0.01 µM) 10.9% | viability, T/C [19] 10.2% | viability, T/C [20] 8.76% | viability, T/C [21] 11.4% | viability, T/C [22] 10% | viability, T/C (second compound 0.316 µM, first compound 0.00316 µM) 13.4% | viability, T/C (second compound 0.316 µM, first compound 0.01 µM) 13.1% | viability, T/C [23] 13.2% | viability, T/C [24] 11.2% | viability, T/C (second compound 1 µM, first compound 0.00316 µM) 10.8% | viability, T/C (second compound 1 µM, first compound 0.01 µM) 12% | viability, T/C [27] 11.3% | viability, T/C [28] 10.8% | viability, T/C [29] 10.7% | viability, T/C [30] 8.18%
active: viability, T/C [25] 8.8% | viability, T/C [26] 8.66%
< 3.16 nM: IC50 [1] | IC50 [2] | IC50 [3] | IC50 [4] | IC50 [5] | IC50 [6]

CNC(C)C(=O)NC1CN(S(=O)(=O)c2cccc(S(=O)(=O)N3CCC4CCC(C(=O)NC(c5ccccc5)c5ccccc5)N4C(=O)C(NC(=O)C(C)NC)C3)c2)CCC2CCC(C(=O)NC(c3ccccc3)c3ccccc3)N2C1=O (stereo unspecified) + CCN1C(C(=O)NC23CCC(C(=O)O)(CC2)CC3)C(c2cccc(Cl)c2F)C2(C(=O)Nc3cc(Cl)ccc32)C12CCCCC2
active: viability, T/C (second compound 0.949 µM, first compound 0.01 µM) 10% | viability, T/C (second compound 0.949 µM, first compound 0.0316 µM) 7.29% | viability, T/C (second compound 0.949 µM, first compound 0.1 µM) 8.83% | viability, T/C (second compound 0.949 µM, first compound 0.316 µM) 10.5% | viability, T/C (second compound 0.949 µM, first compound 1 µM) 12%
4.89 nM: IC50 (curve of first compound, second compound 0.00949 µM)
< 3.16 nM: IC50 (curve of first compound, second compound 0.0949 µM) | IC50 (curve of first compound, second compound 0.3 µM) | IC50 (curve of first compound, second compound 0.949 µM) | IC50 (curve of first compound, second compound 3 µM)
inactive: viability, T/C (second compound 0.00949 µM, first compound 0.00316 µM) 69.8% | viability, T/C (second compound 0.00949 µM, first compound 0.01 µM) 17.4% | viability, T/C (second compound 0.00949 µM, first compound 0.0316 µM) 16.6% | viability, T/C (second compound 0.00949 µM, first compound 0.1 µM) 14.7% | viability, T/C (second compound 0.00949 µM, first compound 0.316 µM) 17.1% | viability, T/C (second compound 0.00949 µM, first compound 1 µM) 15.5% | viability, T/C (second compound 0.03 µM, first compound 0.00316 µM) 61.2% | viability, T/C (second compound 0.03 µM, first compound 0.01 µM) 13.8% | viability, T/C (second compound 0.03 µM, first compound 0.0316 µM) 13.1% | viability, T/C (second compound 0.03 µM, first compound 0.1 µM) 19% | viability, T/C (second compound 0.03 µM, first compound 0.316 µM) 15.5% | viability, T/C (second compound 0.03 µM, first compound 1 µM) 15.8% | viability, T/C (second compound 0.0949 µM, first compound 0.00316 µM) 32.7% | viability, T/C (second compound 0.0949 µM, first compound 0.01 µM) 8.77% | viability, T/C (second compound 0.0949 µM, first compound 0.0316 µM) 9.56% | viability, T/C (second compound 0.0949 µM, first compound 0.1 µM) 11.9% | viability, T/C (second compound 0.0949 µM, first compound 0.316 µM) 11.5% | viability, T/C (second compound 0.0949 µM, first compound 1 µM) 16% | viability, T/C (second compound 0.3 µM, first compound 0.00316 µM) 15.1% | viability, T/C (second compound 0.3 µM, first compound 0.01 µM) 8.53% | viability, T/C (second compound 0.3 µM, first compound 0.0316 µM) 9.64% | viability, T/C (second compound 0.3 µM, first compound 0.1 µM) 9.86% | viability, T/C (second compound 0.3 µM, first compound 0.316 µM) 11% | viability, T/C (second compound 0.3 µM, first compound 1 µM) 12.2% | viability, T/C (second compound 0.949 µM, first compound 0.00316 µM) 10.9% | viability, T/C (second compound 3 µM, first compound 0.00316 µM) 11.6% | viability, T/C (second compound 3 µM, first compound 0.01 µM) 9.65% | viability, T/C (second compound 3 µM, first compound 0.0316 µM) 9.98% | viability, T/C (second compound 3 µM, first compound 0.1 µM) 9.21% | viability, T/C (second compound 3 µM, first compound 0.316 µM) 12.1% | viability, T/C (second compound 3 µM, first compound 1 µM) 12.5%
4.19 nM: IC50 (curve of first compound, second compound 0.03 µM)

O=C(c1cc(Cc2n[nH]c(=O)c3ccccc23)ccc1F)N1CCN(C(=O)C2CC2)CC1
inactive: viability, T/C (compound 0.0316 µM) 104% and 99% and 94.7% | viability, T/C (compound 0.1 µM) 90.7% and 89.4% and 111% | viability, T/C (compound 0.316 µM) 95.8% and 90.3% and 114% | viability, T/C (compound 1 µM) 104% and 121% and 97.4% | viability, T/C (compound 3.16 µM) 81.3% and 87.6% and 46.4% | viability, T/C (compound 10 µM) 71.4% and 72.6% and 15.8%
> 10000 nM and 2910 nM: IC50 (curve of compound)
